# Test results taken from US11118211B2, “Methods for the design of mechanism-based sirtuin activating compounds” (CHAKRABARTI ADVANCED TECHNOLOGY LLC, priority 2015, dated 2021).
# Read-outs that look alike come from different tables or passages of the source.
# Tests used:
# [1] = Thermodynamic solubility measurement by HPLC in HDAC buffer / DMSO; assay type: physicochemical; settings: for thermodynamic solubility (in words): solubility protocol of b230; for solubility at 48 h: 24.5 °C, thermodynamic from solid, ambient (24-25° C.)
# Description: DHP-1 in up to 20% DMSO/HDAC was insoluble. In brief, HPLC (Agilent 1100 series) was used to perform the test. Calibration curves were established using concentration range covering the estimated solubility's. The samples were then analyzed by a well-calibrated HPLC method. The linearity was measured by R-values at least >0.99. The estimated detection limit was around 0.002 mg/mL (2 μg/mL) based on acceptable N/S ratio. Over saturated samples were prepared by dosing excess compounds into the solvent mixtures of interest. The samples were equilibrated at ambient (24-25° C.) for 48 hours and then analyzed by the same HPLC method.
# Human Sirt3 protein [2] = target: T1, Human Sirt3 protein (Homo sapiens, UniProt Q9NTG7); assay: Label-free HPLC endpoint assay of Sirt3 deacetylation activity (DHP-1, DHP-2; FdL/p53 peptide); assay type: biochemical; settings: for % product formation / % Sirt3 Activity: 50 uM DHP-1 in 5% DMSO; for % Sirt3 Activity: control = 100.0
# T1 construct: hexa-histidine (N); host or cells: E. coli Arctic Express (DE3)
# T1 sequence (Q9NTG7 102-399): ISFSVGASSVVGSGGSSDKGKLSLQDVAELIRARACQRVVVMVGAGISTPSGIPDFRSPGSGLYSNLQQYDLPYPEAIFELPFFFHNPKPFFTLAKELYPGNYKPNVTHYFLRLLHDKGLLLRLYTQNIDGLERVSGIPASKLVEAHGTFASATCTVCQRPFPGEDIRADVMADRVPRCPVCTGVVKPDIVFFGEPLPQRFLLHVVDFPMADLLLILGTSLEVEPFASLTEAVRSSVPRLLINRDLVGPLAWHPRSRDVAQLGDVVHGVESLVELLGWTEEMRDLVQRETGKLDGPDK
# Description: Reactions for DHP-1 used a similar protocol, but were carried out at a single concentration of modulator and varying concentrations of NAD+ and fluorolabeled peptide at 37° C. in a 50 μl reaction volume containing 50 mM Tris/Cl (pH=8), 137 mM NaCl, and 5% DMSO. [DHP] was 50 uM.
# recombinant human SIRT3 = target: T2, recombinant human SIRT3 (Homo sapiens, UniProt Q9NTG7); assay: High-throughput fluorimetric initial rate / endpoint assay of SIRT3 deacetylation with fluorolabeled p53 peptide; assay type: biochemical
# T2 construct: purchased Enzo Life Sciences AK 557
# T2 sequence (Q9NTG7 1-399): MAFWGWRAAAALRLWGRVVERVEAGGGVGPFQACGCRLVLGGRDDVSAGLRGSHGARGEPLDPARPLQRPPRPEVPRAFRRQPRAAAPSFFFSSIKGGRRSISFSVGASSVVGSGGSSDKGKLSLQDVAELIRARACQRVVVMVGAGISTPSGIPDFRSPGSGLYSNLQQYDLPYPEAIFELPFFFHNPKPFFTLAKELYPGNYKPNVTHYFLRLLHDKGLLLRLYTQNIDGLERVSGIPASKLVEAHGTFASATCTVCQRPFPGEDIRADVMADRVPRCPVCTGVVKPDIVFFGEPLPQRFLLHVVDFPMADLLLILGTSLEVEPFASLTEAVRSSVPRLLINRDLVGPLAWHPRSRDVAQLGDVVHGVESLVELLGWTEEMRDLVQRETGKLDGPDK
# Description: The specified concentration of the test compound was chosen to be 50 uM. Initial deacylation rates at DHP-1's were measured at varying [NAD+] and [NAM] according to the following methods.
# The steady state parameters (Km and kcat) and catalytic efficiency (kcat/Km) of deacetylase activity of recombinant human SIRT3 were determined using a fluorimetric assay. The deacetylation activities were measured by using the SIRT3 Fluorimetic Drug Discovery Kit (AK 557, Enzo Life Sciences). This assay system allows detection of a fluorescent signal upon deacetylation of an acetylated substrate peptide, comprising amino acids 317-320 of human p53 (Gln-Pro-Lys-LysAc) for SIRT3, when treated with developer. The intensity of fluorescence was measured on a fluorometric microplate reader (Fluoroskan AscentH FL, Thermo Lab Systems) with excitation set at 355 nm and emission detection set at 460 nm. The initial rate of the NAD^+-dependent deacetylation activity of SIRT3 enzyme was measured at different concentrations of NAD^+. The reactions were carried out at 37° C. in a 50 μl reaction volume containing 50 mM Tris/Cl (pH=8), 137 mM NaCl, and 250 uM fluorolabeled peptide substrate. Reactions carried out in the presence of DHP-1 included 5% DMSO. The raw data were fitted to the Michaelis-Menten equation and defined inhibition models by using GraphPad Prism (GraphPad Software, Inc, CA) to obtain the kinetic constants. […] In assays of allosteric modulators, artifacts reported in the presence of the fluorescent label were later shown to occur due to the hydrophobic fluorophore participating in the modulator's allosteric activation mechanism.
# This assay was used to measure the potency of modulation of SIRT3 by DHP-1 in a high-throughput endpoint format. All reagents are diluted on ice in the following reaction buffer: 50 mM Tris/Cl, pH 8.0, 137 mM NaCl, 2.7 mM KCl, 1 mM MgCl2, and 1 mg/mL BSA. Thus for each reaction well, 5U of SIRT3 enzyme is added to 500 μM NAD^+, 250 μM fluorolabeled peptide substrate, and DHP-1 at a given concentration (0-100 uM) in a total reaction volume of 50 μL. After an hour incubation at 37° C., the reaction is stopped upon addition of 1× Developer for a final reaction volume of 100 μL. The reaction is incubated at 37° C. for an additional 15 min and then read on the plate reader. Positive controls contained only enzyme, substrate, NAD^+, and DMSO while background controls contained substrate, NAD^+, and DMSO only.
# Sir2Af2 = target: T3, Sir2Af2 (Archaeoglobus fulgidus, UniProt O30124); settings: cited from earlier work
# T3 sequence (O30124 1-253): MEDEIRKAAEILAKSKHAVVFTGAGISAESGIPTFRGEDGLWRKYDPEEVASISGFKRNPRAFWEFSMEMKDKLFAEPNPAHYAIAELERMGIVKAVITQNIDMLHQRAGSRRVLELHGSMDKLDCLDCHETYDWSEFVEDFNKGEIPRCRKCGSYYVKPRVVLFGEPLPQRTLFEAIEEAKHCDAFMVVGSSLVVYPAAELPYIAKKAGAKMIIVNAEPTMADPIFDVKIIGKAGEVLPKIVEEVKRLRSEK
# Human Sirt3 protein [3] = target: T1, Human Sirt3 protein; assay: Binding analysis by microscale thermophoresis (MST); settings: 5% DMSO, 25° C.
# Description: Human Sirt3 protein was labeled with Alexa647 fluorophore by NHS ester chemistry in 20 mM HEPES, 200 mM NaCl, 0.5 mM TCEP at pH 7.5. A 2:1 molar excess of reactive dye was used over protein, in order to preferentially label one lysine within the protein. Free dye was removed using a size exclusion column and the labeled protein (Sirt3 NT647) was buffer exchanged into 50 mM Tris-HCl pH 8.0, 137 mM NaCl, 2.7 mM KCl, 1 mM MgCl2, 5% DMSO, 0.05% Pluronic F-127. A final concentration of 2 nM Sirt3 NT647 was titrated with varying concentrations of the modulator and thermophoresis was measured (excitation wavelength 650 nm, emission wavelength 670 nm, LED-power 15%, laser-power 80%) using a Monolith NT. 115 Pico (NanoTemper Technologies) at 25° C. in the absence and presence of various concentrations of NAD+, acetylated and de-acetylated peptide (K122-MnSOD peptide). Dissociation constants were determined with GraFit7 (Erithacus Software) by nonlinear fitting using a 1:1 binding model. Each experiment was repeated at least twice.
# [4] = 100 uM NAD + 100 uM FdL Peptide
# [5] = 200 uM NAD + 100 uM FdL Peptide
# [6] = 500 uM NAD + 250 uM FdL Peptide
# [7] = 2% DMSO in HDAC buffer, aqueous buffer, 2% DMSO/HDAC
# [8] = 5% DMSO in HDAC buffer, aqueous with cosolvent or surfactant or cyclodextrin, 5% DMSO/HDAC
smiles,measurement,setting,value
"CCOC(=O)C1=CN(Cc2ccccc2)C=C(C(=O)OCC)C1c1ccccc1 [DHP-1, N-Benzyl-3,5-dicarbethoxy-4-phenyl-1,4-dihydropyridine]",thermodynamic solubility (in words),[1],thermodynamically insoluble
same,Solubility,[1]; up to 20% DMSO/HDAC,insoluble
same,SIRT3 activation in label-free assay,"Human Sirt3 protein [2]; 50 uM DHP-1, conditions of Table 2, threshold vapp/v=1.10",does not activate SIRT3
same,% product formation,Human Sirt3 protein [2]; [4],5.776%
same,% Sirt3 Activity,Human Sirt3 protein [2]; [4],96.7%
same,% product formation,Human Sirt3 protein [2]; [5],9.463%
same,% Sirt3 Activity,Human Sirt3 protein [2]; [5],92.3%
same,% product formation,Human Sirt3 protein [2]; [6],2.111%
same,% Sirt3 Activity,Human Sirt3 protein [2]; [6],99.5%
same,"Alpha (apparent, best-fit value)","recombinant human SIRT3; 50 uM DHP-1, global fit of mixed inhibition model, varying NAD+ and NAM",1.933
same,"Vmax (apparent, best-fit value)","recombinant human SIRT3; 50 uM DHP-1, global fit of mixed inhibition model, varying NAD+ and NAM, 250 uM fluorolabeled peptide",0.2118
same,net effect on catalytic turnover (vapp versus v),recombinant human SIRT3; fluorimetric assays,vapp>v
"NC(=O)c1cccnc1 [NAM, nicotinamide]","ΔGbind,NAM",Sir2Af2,-4.1 kcal/mol
"O=C(O)C1=CN(Cc2ccccc2)C=C(C(=O)O)C1c1ccccc1 [DHP-2, N-Benzyl-3,5-dicarboxy-4-phenyl-1,4-dihydropyridine]",solubility at 48 h,[1]; [7],1740 µg/mL
same,solubility at 48 h,[1]; [8],2140 µg/mL
same,solubility at 48 h,"[1]; 10% DMSO in HDAC buffer, aqueous with cosolvent or surfactant or cyclodextrin, 10% DMSO/HDAC",2200 µg/mL
same,solubility at 48 h,"[1]; aqueous buffer, 100% HDAC buffer",2300 µg/mL
same,thermodynamic solubility (in words),[1],thermodynamically soluble
same,SIRT3 activation in label-free assay,"Human Sirt3 protein [2]; 3 μM NAD+ and 250 μM peptide substrate, 0-400 μM DHP-2, threshold vapp/v=1.10",does not activate SIRT3
same,"rate enhancement versus predicted for Km,NAD+ reduction (x = 0.7, 0.8, 0.9)","Human Sirt3 protein [2]; any concentration tested, label-free assay (FIG. 8 vs FIG. 10)",does not induce a rate enhancement exceeding those predicted
"C=CCc1ccc(O)c(-c2ccc(O)c(CC=C)c2)c1 [Honokiol, 5,3′-Diallyl-2,4′-dihydroxybiphenyl, reference compound]",solubility at 48 h,[1]; [7],41 µg/mL
same,solubility at 48 h,[1]; [8],120 µg/mL
same,Kd,"Human Sirt3 protein [3]; read-out: Kd, binding to SIRT3 apoenzyme",1010 ± 129 nM
same,Kd,"Human Sirt3 protein [3]; read-out: Kd, binding to the enzyme:NAD+ complex",1670 ± 125 nM
"NC(=O)c1ccncc1 [isonicotinamide, reference compound]",outcome of hit identification,"recombinant human SIRT3; same sirtuin enzyme and peptide substrate, competitive inhibitor of base exchange",screened out
